Experimental data reported in patent publication US7081472B2, “Substituted bis-indole derivatives useful as contrast agents, pharmaceutical compositions containing them and intermediates for producing them” (K. U. Leuven Research & Development, priority 2000, dated 2006).

Key:
[1] = 0.25 mmolar solution, yellow-orange color; cited from earlier work
[2] = animals, 1 mmole of the gadolinium complex per kg body weight; cited from earlier work
[3] = MR angiography after intravenous injection in a rabbit; format: in vivo; conditions: i.v. 0.1 mmole per kg
From the text: For the purpose of a comparison with a known contrast agent, MR angiographic images of a rabbit were taken (shown in FIG. 5) after intravenous injection of: • a commercial MRI contrast agent (Gd-DTPA commercially available under the tradename Magnevisto® from Schering A G, Berlin, Germany) at a concentration of 0.1 mmole per kg bodyweight (A-C), and • the complex of example 8 at a concentration of 0.05 mmole per kg bodyweight (A′-C′).

Row | Compound | absorbance at 400 nm [1] | side effects after intravenous bolus injection [2] | contrast enhancement of abdominal aorta, first pass ([3]; immediately after injection) | contrast enhancement of abdominal aorta ([3]; one minute after contrast)
1 | gadolinium complex of the bis-diethylenetriaminepentaacetic acid pamoic acid derivative obtained from 3-hydroxy-2-naphtalene methyl carboxylate | 0.75 | significant side effects (e.g. myocarditis) |  | 
2 | O=C([O-])CN(CCN(CC(=O)[O-])CC(=O)O)CCN(CC(=O)[O-])CC(=O)O.[Gd+3] [Gd-DTPA] |  |  | moderately enhanced | faintly enhanced
